The text below walks through data of PubChem BioAssay AID1963436 (Molecular Pharmacology Branch, DTP, NCI, 2024).

In the assay the test system is OVCAR-5 complex spheroid (HUVEC/MSC), viability % T/C. The assay is described as follows: Anticancer human tumor OVCAR-5 cell line growth inhibition [Asc].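 As to all read-outs here: spheroids exposed to agents for 7 days before readout.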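 As to viability, T/C: 100% = DMSO vehicle-treated wells.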 Particulars: for viability, T/C: stronger effect = lower value. Summed up:
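Complex spheroids combining tumor cells with HUVEC endothelial cells and human MSCs, at 37 degrees C, 5% CO2; agents tested alone or combined, half-log dilutions from at or near clinical Cmax, or 10 microM if Cmax unknown.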

Where [1] appears, read: curve of first compound, second compound 0.1 µM.
[2] abbreviates: curve of first compound, second compound 0.316 µM.
The mark [3] stands for this setting: curve of first compound, second compound 1 µM.
[4] abbreviates: curve of first compound, second compound 3.16 µM.
[5] abbreviates: curve of first compound, second compound 10 µM.

Where “and” joins values, the source holds several entries; their conditions need not be identical. Equal values may be shown once. Some results are limits rather than exact numbers.

As to `CCN1C(C(=O)NC23CCC(C(=O)O)(CC2)CC3)C(c2cccc(Cl)c2F)C2(C(=O)Nc3cc(Cl)ccc32)C12CCCCC2` (stereo not given), the viability, T/C (compound 0.00949 µM) was 101% and 109%; the viability, T/C (compound 0.03 µM) was 97.1% [middle of 15 runs]; the viability, T/C (compound 0.0949 µM) was 93.8% [middle of 15 runs]; the viability, T/C (compound 0.3 µM) is 95.7% [middle of 15 runs]; the viability, T/C (compound 0.949 µM) was 99.8% [middle of 15 runs]; the viability, T/C (compound 3 µM) was 103% [middle of 15 runs]. The IC50 was greater than 3 µM (compound alone, run of 09/27/2022) and greater than 3 µM (curve of compound).
`Cn1ncnc1[C@H]1c2n[nH]c(=O)c3cc(F)cc(c23)N[C@@H]1c1ccc(F)cc1`: the viability, T/C runs as follows: (compound 0.000316 µM) 104% and 94.5% and 106%; (compound 0.001 µM) 108% (2×) and 101%; (compound 0.00316 µM) 99.5% and 95.4% and 93.1%; (compound 0.01 µM) 90.6% and 93.5% and 96.7%; (compound 0.0316 µM) 92.8% and 92.5% and 90.8%; (compound 0.1 µM) 91.8% and 88.3% and 93.8%. For the setting “curve of compound”, the IC50 was greater than 0.1 µM.
Consider `NC1CCC(NC2CC2c2ccccc2)CC1` (stereo not given) + Cc1c(S(C)(=O)=O)c(-c2cc(F)cc(N3CCN(c4ccc(NS(=O)(=O)c5ccc(NC(CCN6CCC(C(=O)OCCCP(=O)(O)O)CC6)CSc6ccccc6)c(S(=O)(=O)C(F)(F)F)c5)cc4)CC3)c2)c(-c2ccc(Cl)cc2)n1C(C)C, for which the IC50 runs as follows: under setting [1], greater than 0.1 µM; under setting [2], greater than 0.1 µM; under setting [3], greater than 0.1 µM; under setting [4], greater than 0.1 µM; under setting [5], greater than 0.1 µM. In addition, the viability, T/C reads like this: (second compound 0.1 µM, first compound 0.000316 µM) 86%; (second compound 0.1 µM, first compound 0.001 µM) 103%; (second compound 0.1 µM, first compound 0.00316 µM) 89.5%; (second compound 0.1 µM, first compound 0.01 µM) 94.1%; (second compound 0.1 µM, first compound 0.0316 µM) 103%; (second compound 0.1 µM, first compound 0.1 µM) 92.3%. Also, the viability, T/C was 87.9% (second compound 0.316 µM, first compound 0.000316 µM); 95.6% (second compound 0.316 µM, first compound 0.001 µM); 85% (second compound 0.316 µM, first compound 0.00316 µM); 81.9% (second compound 0.316 µM, first compound 0.01 µM); 90.3% (second compound 0.316 µM, first compound 0.0316 µM); 93.1% (second compound 0.316 µM, first compound 0.1 µM). Further, the viability, T/C runs as follows: (second compound 1 µM, first compound 0.000316 µM) 94.7%; (second compound 1 µM, first compound 0.001 µM) 94.2%; (second compound 1 µM, first compound 0.00316 µM) 90.7%; (second compound 1 µM, first compound 0.01 µM) 81%; (second compound 1 µM, first compound 0.0316 µM) 92.4%; (second compound 1 µM, first compound 0.1 µM) 86.3%. Besides, the viability, T/C is 94.9% (second compound 3.16 µM, first compound 0.000316 µM); 95.5% (second compound 3.16 µM, first compound 0.001 µM); 83.7% (second compound 3.16 µM, first compound 0.00316 µM); 76% (second compound 3.16 µM, first compound 0.01 µM); 93.2% (second compound 3.16 µM, first compound 0.0316 µM); 87.8% (second compound 3.16 µM, first compound 0.1 µM). For the same molecule, the viability, T/C reads like this: (second compound 10 µM, first compound 0.000316 µM) 115%; (second compound 10 µM, first compound 0.001 µM) 110%; (second compound 10 µM, first compound 0.00316 µM) 120%; (second compound 10 µM, first compound 0.01 µM) 107%; (second compound 10 µM, first compound 0.0316 µM) 104%; (second compound 10 µM, first compound 0.1 µM) 112%.
`CCN1C(C(=O)NC23CCC(C(=O)O)(CC2)CC3)C(c2cccc(Cl)c2F)C2(C(=O)Nc3cc(Cl)ccc32)C12CCCCC2` (stereo not given) + Cc1c(S(C)(=O)=O)c(-c2cc(F)cc(N3CCN(c4ccc(NS(=O)(=O)c5ccc(NC(CCN6CCC(C(=O)OCCCP(=O)(O)O)CC6)CSc6ccccc6)c(S(=O)(=O)C(F)(F)F)c5)cc4)CC3)c2)c(-c2ccc(Cl)cc2)n1C(C)C: the IC50 under setting [1] was greater than 3 µM; the IC50 under setting [2] was greater than 3 µM; the IC50 under setting [3] was greater than 3 µM; the half-inhibitory concentration (IC50) under setting [4] is greater than 3 µM; the IC50 under setting [5] is greater than 3 µM. The viability, T/C (second compound 0.1 µM, first compound 0.00949 µM) was 102%; the viability, T/C (second compound 0.1 µM, first compound 0.03 µM) is 93.8%; the viability, T/C (second compound 0.1 µM, first compound 0.0949 µM) is 93.1%; the viability, T/C (second compound 0.1 µM, first compound 0.3 µM) is 86.9%; the viability, T/C (second compound 0.1 µM, first compound 0.949 µM) was 97.3%; the viability, T/C (second compound 0.1 µM, first compound 3 µM) was 92.5%. In addition, the viability, T/C was 86.3% (second compound 0.316 µM, first compound 0.00949 µM); 101% (second compound 0.316 µM, first compound 0.03 µM); 90.2% (second compound 0.316 µM, first compound 0.0949 µM); 82.8% (second compound 0.316 µM, first compound 0.3 µM); 91.3% (second compound 0.316 µM, first compound 0.949 µM); 83.3% (second compound 0.316 µM, first compound 3 µM). Besides, the viability, T/C was 88% (second compound 1 µM, first compound 0.00949 µM); 85.5% (second compound 1 µM, first compound 0.03 µM); 88.5% (second compound 1 µM, first compound 0.0949 µM); 86.9% (second compound 1 µM, first compound 0.3 µM); 75.4% (second compound 1 µM, first compound 0.949 µM); 83% (second compound 1 µM, first compound 3 µM). Moreover, the viability, T/C was 84.7% (second compound 3.16 µM, first compound 0.00949 µM); 92.4% (second compound 3.16 µM, first compound 0.03 µM); 97.4% (second compound 3.16 µM, first compound 0.0949 µM); 78.7% (second compound 3.16 µM, first compound 0.3 µM); 74.1% (second compound 3.16 µM, first compound 0.949 µM); 69.3% (second compound 3.16 µM, first compound 3 µM). The viability, T/C is 114% (second compound 10 µM, first compound 0.00949 µM); 122% (second compound 10 µM, first compound 0.03 µM); 126% (second compound 10 µM, first compound 0.0949 µM); 111% (second compound 10 µM, first compound 0.3 µM); 102% (second compound 10 µM, first compound 0.949 µM); 89.8% (second compound 10 µM, first compound 3 µM).
